Experimental data taken from patent US12295968B2, “Compositions and methods for targeted immunomodulatory antibodies and fusion proteins” (The Johns Hopkins University, priority 2010, dated 2025).
Entries after “also recorded” stand apart in the source; their conditions may differ.

Columns and labels:
[1] = tested on: tumor-reactive CD8^+ T cells; assay: Flow cytometry of IFN-γ expression in CD8^+ T cells from tumor and draining lymph node, stimulation with MB49 cell lysates; format: in vivo, C57BL/6 mice
From the text: (§1) (FIG. 55A) In vivo depletion of tumor-infiltrating CD4^+CD25^+FoxP3^+ T cells by treatment of tumor-bearing mice with anti-CD4 antibody. C57BL/6 mice injected with 5×10^5 MB49 tumor cells s.c. were left untreated (control) or administered an anti-CD4 antibody (Clone GK1.5) i.p. at 5 d and 9 d following tumor challenge. CD4^+CD25^+FoxP3^+ T cells infiltrating tumors isolated from mice at d16 following tumor challenge were detected by flow cytometry. […] Flow cytometric analyses of peripheral blood mononuclear cells isolated from mice at d16 following tumor challenge determined the percentage of CD4^+ T cells or CD8^+ T cells among total mononuclear cells, and the percentage of CD4^+CD25^+FoxP3^+ T cells among total CD4^+ T cells. […] Tumor-reactive immune responses were determined by flow cytometric analyses of IFN-γ expression in CD8^+ T cells from the tumor and draining lymph node in response to in vitro stimulation with MB49 cell lysates. […] Tumor volume was monitored to determine the effect of depleting either CD4^+ T cells or CD8^+ T cells on the in vivo antitumor efficacy of doxorubicin. […]

[2] = tested on: mouse MB49 bladder cancer cells; assay: Surface exposure of calreticulin (CRT), immunofluorescence cytometry; format: cell-based; conditions: 4 h
[3] = tested on: MB49 tumors; assay: MB49 tumor volume, chemotherapy with or without anti-CD4 or anti-CD8 antibody; format: in vivo, C57BL/6 mice
From the text: as §1

[4] = tested on: MB49 tumors; assay: Intratumoral doxorubicin in mice with pre-established MB49 tumors, tumor growth; format: in vivo, C57BL/6 mice
[5] = tested on: human SW780 bladder cancer cells; assay: Surface exposure of calreticulin (CRT), immunofluorescence cytometry; format: cell-based; conditions: doxorubicin 10 μM, 4 h
[6] = tested on: MB49 tumor cells; assay: Priming of tumor-reactive immune responses: IFN-γ production by draining lymph node (DLN) cells on in vitro re-challenge; format: in vivo, C57BL/6 mice; conditions: intratumoral doxorubicin 10 μg at d10 following tumor inoculation, established tumors
[7] = tested on: mouse NKG2D ligands (Rae-1); assay: Quantitative real-time PCR of Rae1 transcripts in CT26 cells; format: cell-based; conditions: irinotecan 25 μg/ml or oxaliplatin 10 μg/ml
[8] = tested on: CT26 tumors; assay: CT26 tumor volume, irinotecan with or without NKG2D blocking, anti-CD4 and/or anti-CD8 antibody; format: in vivo, Balb/C mice; conditions: irinotecan alone
[9] = tested on: human NKG2D ligands (MICA/MICB); assay: Flow cytometry of cell surface MICA/B on HCT116 cells; format: cell-based; conditions: irinotecan 25 μg/ml, 16 h

In the case of `N.N.[Cl][Pt][Cl]` [cisplatin], the “IFN-γ expression in CD8^+ T cells” value ([1]; cisplatin alone, 0.5 mg/kg i.p. weekly×4 from d7) is reported as “unable to induce a corresponding elevation of IFN-γ expression”, the “CRT exposure compared to doxorubicin” value ([2]; equitoxic doses) is reported as “less effective in increasing CRT exposure” and the “growth of MB49 tumors” value ([3]; cisplatin alone, 0.5 mg/kg i.p. weekly×4) is reported as “partially inhibited tumor growth but failed to arrest tumor progression”.
`COc1cccc2c1C(=O)c1c(O)c3c(c(O)c1C2=O)C[C@@](O)(C(=O)CO)C[C@@H]3O[C@H]1C[C@H](N)[C@H](O)[C@H](C)O1` [doxorubicin] was tested, and the tumor growth ([4]; intratumoral doxorubicin 10 μg on d3 following tumor inoculation) was “able to arrest tumor growth”, the tumor growth ([4]; intratumoral doxorubicin 10 μg on d10 following tumor inoculation) was “failed to inhibit the progressive growth” and the “IFN-γ^+CD8^+ T cells” value ([1]; doxorubicin alone, 5 mg/kg i.p. weekly×3 from d7, 5 mg/kg) was “IFN-γ^+CD8^+ T cells became evident; also recorded: tumor-reactive IFN-γ^+CD8^+ T cells were evident”. The “surface exposure of CRT” value [5] was “induced rapid surface exposure of CRT”, the “IFN-γ secretion by DLN cells on re-challenge with MB49 cell lysates” value [6] was “failed to induce a corresponding increase in IFN-γ secretion” and the “surface exposure of CRT” value ([2]; doxorubicin 10 μM) was “induced rapid surface exposure of CRT; also recorded: efficient translocation of CRT to the cell surface”. The “growth of MB49 tumors” value ([3]; doxorubicin alone, 5 mg/kg i.p. weekly×3) was “inhibited the growth of MB49 tumors but failed to arrest tumor progression”.
With `CCc1c2c(nc3ccc(OC(=O)N4CCC(N5CCCCC5)CC4)cc13)-c1cc3c(c(=O)n1C2)COC(=O)[C@]3(O)CC` [irinotecan] the “time after which Rae1 mRNA began to decline” value [7] was 48 h, the “growth of CT26 tumors” value ([8]; 50 mg/kg i.p. weekly×3 from d5) was “inhibited the growth of CT26 tumors” and the “growth of CT26 tumors” value ([8]; 50 mg/kg i.p. weekly×3 from d7) was “only slowed tumor growth”. For the same compound, the “cell surface expression of MICA, MICB” value ([9]; HCT116 cells) was “upregulated” and the “p53 dependence of upregulation of MICA/B” value ([9]; isogenic p53^+/+ and p53^−/− HCT116 cells) was “p53 is not required”.
With `O=C1[O][Pt]2([NH][C@@H]3CCCC[C@H]3[NH]2)[O]C1=O` [oxaliplatin] the “time after which Rae1 mRNA began to decline” value [7] was 48 h.
